The nature of series [1]: Solubility in water: water added by degrees until 0.1 g of compound fully dissolves. The note with it: for Water quantity for dissolving 0.1 g solute: 28° C.
The conditions of series [2]: in words; cited from earlier work.
In the next series the test system is e-NOS. Nature of the series: e-NOS expression in Wistar rat pulmonary artery (Western blot). Type of series: cell-based. The note with it: rat pulmonary artery incubated 2 hours with 0.01 mg/ml (10^-5 M); actin as internal control; FIG. 1. As to the method:
The e-NOS expression of dextromethorphan glycyrrhizinate and dimemorfan glycyrrhizinate are carried out via the following procedures.
The blank control group were not added with dextromethorphan glycyrrhizinate or dimemorfan glycyrrhizinate. After incubated for 2 hours, the pulmonary artery were lysed in ice-cold homogenization buffer. The homogenates were centrifuged at 13,000 rpm for 10 minutes at 4° C. The protein concentration was determined by the method of Bradford. Samples were denatured and subjected to sodium dodecylsulfate polyacrylamide gel electrophoresis (SDS-PAGE) using a 7.5% running gel. Protein were transferred to polyvinylidene difluoride (PVDF) membrane, and the PVDF membrane was incubated successively at room temperature with 5% nonfat milk-0.1% Tween-Tris buffered saline for 1 hour, with rabbit antibodies specific for anti-eNOS for 1 hour, and with horseradish peroxidase conjugated anti-rabbit IgG antibodies (HRP-conjugated anti-rabbit IgG Ab) for 1 hour. After each incubation, the membrane was washed extensively with 0.1% Tween-Tris buffered saline. The immunoreactive bands were detected by ECL reagents.
The expressions of actins are also tested at the same time to be the internal control and are depicted in the middle panel of FIG. 1.
On the technique in general: Immunoblotting shows a protein as a band on a membrane.

Where a name gives a salt, the structure may show the parent alone.

With `COc1ccc2c(c1)[C@]13CCCC[C@@H]1[C@H](C2)N(C)CC3` [Dextromethorphan hydrobromide], in series [1], the “Solubility (28° C.)” value is 2.5%.

As to `COc1ccc2c(c1)[C@]13CCCC[C@@H]1[C@H](C2)N(C)CC3` [dextromethorphan], the Solubility in water result in series [2] is on record as “water insoluble”.

Take Dimemorfan phosphate: in series [1], the “Solubility (28° C.)” value is on record as 2.5% and the “Water quantity for dissolving 0.1 g solute” value came to 4 mL. In the case of dextromethorphan glycyrrhizinate, the e-NOS expression result in the series on e-NOS is listed as “good e-NOS expression”.

Regarding dimemorfan glycyrrhizinate, in series [1], the “Solubility (28° C.)” value is given as 0.05% and the “Water quantity for dissolving 0.1 g solute” value is 200 mL. Also, the e-NOS expression entry with e-NOS was “good e-NOS expression”.
